Active and inactive are the calls of the source. The rule behind the calls is not given here.
What was measured:
[1] = target: 5-hydroxytryptamine receptor 2A (Homo sapiens, UniProt P28223); experiment: biochemical; assay type: cell-based, CHO-K1
[2] = Drug level in Wistar rat plasma at 3 mg/kg, ip measured after 15 mins by LC-MS/MS analysis; assay type: ADME, organism-based
[3] = Drug level in Wistar rat plasma at 3 mg/kg, ip measured after 30 mins by LC-MS/MS analysis; assay type: ADME, organism-based
[4] = Drug level in Wistar rat plasma at 3 mg/kg, ip measured after 60 mins by LC-MS/MS analysis; assay type: ADME, organism-based
[5] = Drug level in Wistar rat brain at 3 mg/kg, ip measured after 15 mins by LC-MS/MS analysis; assay type: ADME, organism-based; settings: read-out: Drug uptake
[6] = Drug level in Wistar rat brain at 3 mg/kg, ip measured after 30 mins by LC-MS/MS analysis; assay type: ADME, organism-based; settings: read-out: Drug uptake
[7] = Drug level in Wistar rat brain at 3 mg/kg, ip measured after 60 mins by LC-MS/MS analysis; assay type: ADME, organism-based; settings: read-out: Drug uptake
[8] = Ratio of drug level in brain to plasma in Wistar rat at 3 mg/kg, ip measured after 15 mins by LC-MS/MS analysis; assay type: ADME, organism-based; settings: read-out: BPR
[9] = Ratio of drug level in brain to plasma in Wistar rat at 3 mg/kg, ip measured after 30 mins by LC-MS/MS analysis; assay type: ADME, organism-based; settings: read-out: BPR
[10] = Ratio of drug level in brain to plasma in Wistar rat at 3 mg/kg, ip measured after 60 mins by LC-MS/MS analysis; assay type: ADME, organism-based; settings: read-out: BPR
[11] = Toxicity in ip dosed Sprague-Dawley rat assessed as sedation pretreated for 60 mins followed by PCP addition measured for 30 mins starting 15 min after rat reintroduction to auto-tracks; assay type: organism-based; settings: in vivo
Rattus norvegicus [12] = experiment: Antipsychotic activity in Sprague-Dawley rat assessed as reduction in PCP-induced hyper-locomotion at 1 to 3 mg/kg, ip pretreated for 60 mins followed by PCP addition measured for 30 mins starting 15 min after rat reintroduction to auto-tracks; assay type: functional, organism-based
[13] = target: 5-hydroxytryptamine receptor 6 (Homo sapiens, UniProt P50406); experiment: biochemical
Description: Displacement of [3H]-LSD from human 5-HT6R expressed in HEK293 cell membranes after 1 hr at 37 degC by microbeta counting method

[14] = target: T1, 5-hydroxytryptamine receptor 1A (Homo sapiens, UniProt P08908); experiment: biochemical
T1 sequence (P08908 whole entry): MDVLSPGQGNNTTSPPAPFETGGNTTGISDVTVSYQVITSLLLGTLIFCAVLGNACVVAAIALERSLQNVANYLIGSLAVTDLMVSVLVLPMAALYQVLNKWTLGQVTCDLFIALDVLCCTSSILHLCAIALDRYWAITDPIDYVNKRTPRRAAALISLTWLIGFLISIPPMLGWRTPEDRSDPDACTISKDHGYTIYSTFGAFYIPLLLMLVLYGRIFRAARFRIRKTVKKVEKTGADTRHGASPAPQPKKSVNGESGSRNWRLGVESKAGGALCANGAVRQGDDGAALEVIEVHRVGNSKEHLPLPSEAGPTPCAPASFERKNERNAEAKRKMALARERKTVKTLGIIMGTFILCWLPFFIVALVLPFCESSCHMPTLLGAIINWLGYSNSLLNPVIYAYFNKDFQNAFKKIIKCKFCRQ
Description: Displacement of [3H]-8-OH-DPAT from human 5-HT1AR expressed in HEK293 cell membranes after 1 hr by microbeta counting method

[15] = target: 5-hydroxytryptamine receptor 7 (Homo sapiens, UniProt P34969); experiment: biochemical
Description: Displacement of [3H]-5-CT from human 5-HT7R expressed in HEK293 cell membranes after 1 hr at 37 degC by microbeta counting method

[16] = target: T2, 5-hydroxytryptamine receptor 1A (Homo sapiens) (UniProt P08908); settings: CHO-K1, 10^-7 M
T2 sequence (whole entry): T1 sequence (P08908 whole entry)

Rattus norvegicus [17] = experiment: Toxicity in Wistar rat assessed as increase in prolactin level at 3 mg/kg, po after 60 mins by ELISA; assay type: organism-based; settings: in vivo, 1 h
[18] = (§1) Toxicity in ip dosed Sprague-Dawley rat assessed as induction of catalepsy measured every 30 mins up to 240 mins by bar test; assay type: organism-based; settings: Sprague-Dawley, in vivo
Rattus norvegicus [19] = experiment: Effect on failure incidence during conditioned avoidance response test in Sprague-Dawley rat at 2 mg/kg, ip administered 60 mins prior to testing; assay type: ADME, organism-based; settings: in vivo, 1 h
Rattus norvegicus [20] = organism: Rattus norvegicus; experiment: animal or person; settings: Sprague-Dawley, ip, read-out: MED
Description: Antipsychotic activity in ip dosed Sprague-Dawley rat assessed as reduction in PCP-induced hyper-locomotion pretreated for 60 mins followed by PCP addition measured for 30 mins starting 15 min after rat reintroduction to auto-tracks

Rattus norvegicus [21] = organism: Rattus norvegicus; experiment: animal or person; settings: Sprague-Dawley, ip, read-out: MED; remark: listed apart in the source
Description: Reversal of PCP-induced cognitive impairment in ip dosed Sprague-Dawley rat assessed as reduction in time spent exploring novel object over familiar object pretreated for 60 mins followed by PCP addition by novel object recognition assay

Rattus norvegicus [22] = organism: Rattus norvegicus; experiment: animal or person; settings: Sprague-Dawley, ip, read-out: MED; remark: listed apart in the source
Description: Antipsychotic activity in ip dosed Sprague-Dawley rat assessed as suppression of avoidance behavior by avoiding foot shock administered 60 mins prior to test by conditioned avoidance response test

Rattus norvegicus [23] = experiment: as §1; assay type: organism-based; settings: in vivo
[24] = Effect on failure incidence during conditioned avoidance response test in ip dosed Sprague-Dawley rat administered 60 mins prior to testing; assay type: ADME, organism-based; settings: in vivo
Rattus norvegicus [25] = experiment: Reversal of ketamine-induced working social withdrawal in Sprague-Dawley rat at 0.1 mg/kg, ip pretreated for 60 mins followed by ketamine administration; assay type: functional, organism-based
Rattus norvegicus [26] = experiment: Reversal of PCP-induced cognitive impairment in Sprague-Dawley rat assessed as […] in time spent exploring novel object over familiar object at 0.05 mg/kg, ip pretreated for 60 mins followed by PCP addition by novel object recognition assay; assay type: functional, organism-based
[27] = target: T3, Alpha-1A adrenergic receptor (Homo sapiens) (UniProt P35348); experiment: Antagonist activity at human adrenergic alpha1A receptor expressed in CHO cells assessed as inhibition of epinephrine-induced calcium flux by fluorimetric method; assay type: functional, cell-based
T3 sequence (whole entry): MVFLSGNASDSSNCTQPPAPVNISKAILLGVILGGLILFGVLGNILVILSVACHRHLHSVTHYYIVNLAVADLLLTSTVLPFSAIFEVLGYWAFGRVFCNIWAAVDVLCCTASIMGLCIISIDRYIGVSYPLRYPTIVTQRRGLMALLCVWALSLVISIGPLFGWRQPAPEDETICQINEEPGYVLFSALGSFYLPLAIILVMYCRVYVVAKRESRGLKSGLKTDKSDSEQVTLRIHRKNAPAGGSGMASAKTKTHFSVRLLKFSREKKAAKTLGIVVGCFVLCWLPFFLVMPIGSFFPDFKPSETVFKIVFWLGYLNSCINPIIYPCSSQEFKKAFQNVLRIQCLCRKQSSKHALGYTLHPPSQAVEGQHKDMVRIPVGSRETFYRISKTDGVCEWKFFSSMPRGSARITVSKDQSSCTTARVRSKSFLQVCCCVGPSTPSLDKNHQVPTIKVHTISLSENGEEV

Rattus norvegicus [28] = experiment: Reversal of ketamine-induced working social withdrawal in Sprague-Dawley rat at 1 mg/kg, ip pretreated for 60 mins followed by ketamine administration; assay type: functional, organism-based
Rattus norvegicus [29] = experiment: Toxicity in Sprague-Dawley rat assessed as induction of catalepsy at 30 mg/kg, ip measured every 30 mins up to 240 mins by bar test; assay type: organism-based; settings: in vivo

Sequence of 5-hydroxytryptamine receptor 6 (P50406 whole entry): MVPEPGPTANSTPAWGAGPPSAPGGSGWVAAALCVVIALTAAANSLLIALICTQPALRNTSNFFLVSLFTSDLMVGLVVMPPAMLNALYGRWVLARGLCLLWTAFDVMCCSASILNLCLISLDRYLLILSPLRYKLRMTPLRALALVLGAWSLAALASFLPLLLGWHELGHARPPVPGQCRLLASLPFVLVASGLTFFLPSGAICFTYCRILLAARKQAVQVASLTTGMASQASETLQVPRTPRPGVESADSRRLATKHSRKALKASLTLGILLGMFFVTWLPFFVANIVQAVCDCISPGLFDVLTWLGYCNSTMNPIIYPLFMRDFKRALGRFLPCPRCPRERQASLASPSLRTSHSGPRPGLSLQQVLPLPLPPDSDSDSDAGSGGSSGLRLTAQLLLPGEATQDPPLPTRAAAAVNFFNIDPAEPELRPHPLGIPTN
Sequence of 5-hydroxytryptamine receptor 2A (P28223 whole entry): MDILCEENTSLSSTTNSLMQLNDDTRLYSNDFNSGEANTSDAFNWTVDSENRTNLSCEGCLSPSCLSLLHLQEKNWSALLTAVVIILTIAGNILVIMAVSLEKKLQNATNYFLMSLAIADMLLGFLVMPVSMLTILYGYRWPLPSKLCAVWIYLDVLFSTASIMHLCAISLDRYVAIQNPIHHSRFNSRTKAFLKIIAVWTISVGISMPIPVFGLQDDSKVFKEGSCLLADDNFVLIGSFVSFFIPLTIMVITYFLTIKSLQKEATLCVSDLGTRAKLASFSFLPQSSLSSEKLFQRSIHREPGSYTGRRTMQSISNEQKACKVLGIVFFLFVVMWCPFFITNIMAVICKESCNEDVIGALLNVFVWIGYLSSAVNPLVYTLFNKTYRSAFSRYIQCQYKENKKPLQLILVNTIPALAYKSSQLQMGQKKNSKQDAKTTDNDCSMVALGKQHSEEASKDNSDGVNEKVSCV
Sequence of 5-hydroxytryptamine receptor 7 (P34969 whole entry): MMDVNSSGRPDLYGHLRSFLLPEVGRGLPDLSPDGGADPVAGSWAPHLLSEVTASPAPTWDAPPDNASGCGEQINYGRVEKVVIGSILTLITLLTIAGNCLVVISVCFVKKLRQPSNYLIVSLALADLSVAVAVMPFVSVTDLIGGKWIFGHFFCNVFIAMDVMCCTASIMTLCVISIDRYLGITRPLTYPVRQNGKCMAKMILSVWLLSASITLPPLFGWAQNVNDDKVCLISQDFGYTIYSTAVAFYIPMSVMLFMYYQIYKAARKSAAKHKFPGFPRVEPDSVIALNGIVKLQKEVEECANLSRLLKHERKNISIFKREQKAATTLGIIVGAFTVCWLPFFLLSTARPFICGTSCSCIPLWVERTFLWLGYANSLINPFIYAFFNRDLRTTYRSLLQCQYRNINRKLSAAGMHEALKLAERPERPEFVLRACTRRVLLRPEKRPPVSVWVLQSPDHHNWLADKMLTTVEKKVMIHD

Compound	MTD at 0.5 h [11] [mg/kg]	Ki [13] [µM]	Ki [14] [µM]	Activity (Rattus norvegicus [17])	MTD [18] [mg/kg]	minimal effective dose (Rattus norvegicus [20]) [mg/kg]	minimal effective dose (Rattus norvegicus [21]) [mg/kg]	minimal effective dose (Rattus norvegicus [22]) [mg/kg]	MTD at 1 h [24] [mg/kg]	further results
O=S(=O)(c1cncc2ccccc12)N1CCC[C@@H]1CCN1CCN(c2nsc3ccccc23)CC1	2	0.04	0.014							Ki [1]: 0.01 µM; concentration at 0.25 h [2]: 472 nM; concentration at 0.5 h [3]: 376 nM; concentration at 1 h [4]: 125 nM; concentration at 0.25 h [5]: 218 nM; concentration at 0.5 h [6]: 242 nM; concentration at 1 h [7]: 123 nM; Kp at 0.25 h [8]: 0.48; Kp at 0.5 h [9]: 0.65; Kp at 1 h [10]: 1; Activity (Rattus norvegicus [12]): inactive; Ki [15]: 0.003 µM
O=C(CCCN1CCC2(CC1)C(=O)NCN2c1ccccc1)c1ccc(F)cc1										inhibition [16]: 100%
Cc1cc2c(s1)Nc1ccccc1N=C2N1CCN(C)CC1 [OLANZAPINE]	1.25			Toxic	40	1.88	1.25	1		Activity (Rattus norvegicus [19]): Non-Toxic
O=C(CCCN1CCC(O)(c2ccc(Cl)cc2)CC1)c1ccc(F)cc1 [HALOPERIDOL]	0.06				0.2	0.6		0.1	0.2	Activity (Rattus norvegicus [23]): Dose-dependent effect; Activity (Rattus norvegicus [25]): inactive; Activity (Rattus norvegicus [26]): inactive
COc1cccc(OC)c1OCCNCC1COc2ccccc2O1 (configuration not stated)										Kb [27]: 0.00024 µM
O=C1Cc2cc(CCN3CCN(c4nsc5ccccc45)CC3)c(Cl)cc2N1 [ZIPRASIDONE]	3	0.02	0.002	Toxic		1	1	1	2	Activity (Rattus norvegicus [28]): inactive; Activity (Rattus norvegicus [29]): Non-Toxic
